Results from patent US20260167619A2, “INDOLINE COMPOUNDS AND DERIVATIVES AS EGFR INHIBITORS” (BeOne Medicines I GmbH, priority 2020, published 2026).

Experiments:
BaF3-WT cells = BaF3-WT cells (Homo sapiens, UniProt P00533); experiment: Cell antiproliferation assay (CellTiter-Glo), BaF3-WT; assay type: cell-based; settings: 48 h treatment, read-out: BaF3-WT IC50
Summary of the method: (§1)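 Cells exposed 48 h to 8 doses from 5-fold serial dilution (500× DMSO stocks from 5 mM), final 0.2% DMSO. Viability by CellTiter-Glo luminescence; IC50 from four-parameter fit of percent inhibition versus concentration.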

[1] = target: EGFR(Dell9_T790M_C797S) (aa 669-1210, in house) (Homo sapiens, UniProt P00533, T790M/C797S, form not given); experiment: Biochemical EGFR inhibition assay (TR-FRET), Del19/T790M/C797S mutant; settings: ATP at Km, 15 min pre-incubation, 60 min reaction; read-out: Del_TM_CS (Km ATP) IC50
Sequence of EGFR(Dell9_T790M_C797S) (aa 669-1210, in house) (P00533 with tags, fused parts or gaps DEL746-750/T790M/C797S, form open): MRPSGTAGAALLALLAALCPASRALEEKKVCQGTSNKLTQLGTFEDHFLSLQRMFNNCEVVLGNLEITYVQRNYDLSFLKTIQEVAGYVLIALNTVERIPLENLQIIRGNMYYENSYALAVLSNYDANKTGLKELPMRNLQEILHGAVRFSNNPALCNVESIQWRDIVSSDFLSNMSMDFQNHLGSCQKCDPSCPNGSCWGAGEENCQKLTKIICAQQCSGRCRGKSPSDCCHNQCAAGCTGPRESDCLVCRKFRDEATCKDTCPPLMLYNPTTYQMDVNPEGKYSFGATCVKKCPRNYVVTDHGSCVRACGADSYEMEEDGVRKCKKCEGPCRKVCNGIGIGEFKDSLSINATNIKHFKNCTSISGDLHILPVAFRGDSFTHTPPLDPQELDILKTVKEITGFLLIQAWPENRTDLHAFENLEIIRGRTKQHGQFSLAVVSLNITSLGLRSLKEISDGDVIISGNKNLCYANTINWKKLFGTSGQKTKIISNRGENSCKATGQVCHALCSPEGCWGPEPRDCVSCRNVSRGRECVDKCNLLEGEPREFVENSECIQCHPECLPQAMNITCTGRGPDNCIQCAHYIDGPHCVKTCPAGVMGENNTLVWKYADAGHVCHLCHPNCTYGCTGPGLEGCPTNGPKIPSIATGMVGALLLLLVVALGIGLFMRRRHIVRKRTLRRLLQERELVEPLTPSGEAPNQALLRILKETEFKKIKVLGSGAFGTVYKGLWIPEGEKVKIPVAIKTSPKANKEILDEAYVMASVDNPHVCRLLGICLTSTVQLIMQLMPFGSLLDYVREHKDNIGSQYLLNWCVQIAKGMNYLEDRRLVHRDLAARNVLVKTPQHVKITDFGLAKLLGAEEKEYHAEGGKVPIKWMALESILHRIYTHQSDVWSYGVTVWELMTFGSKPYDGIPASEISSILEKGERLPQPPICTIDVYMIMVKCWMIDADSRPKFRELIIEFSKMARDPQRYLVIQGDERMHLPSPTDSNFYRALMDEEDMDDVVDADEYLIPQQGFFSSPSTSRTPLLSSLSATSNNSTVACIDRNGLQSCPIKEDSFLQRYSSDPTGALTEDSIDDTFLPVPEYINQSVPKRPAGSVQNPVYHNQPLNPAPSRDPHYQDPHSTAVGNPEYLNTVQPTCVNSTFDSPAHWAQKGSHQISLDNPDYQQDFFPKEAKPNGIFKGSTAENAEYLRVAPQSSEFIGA
Summary of the method: (§2)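 Recombinant kinase domains pre-incubated with compound 15 min at room temperature in HEPES pH 7.5 buffer, then reacted 60 min with ATP at Km and biotin-poly GT substrate. Phosphotyrosine detected by TR-FRET (Eu-anti-pTyr/streptavidin-XL665, 665/620 nm ratio); IC50 from four-parameter logistic fit.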

[2] = target: T1, EGFR(L858R_T790M_C797S) (aa695-end, Invitrogen) (Homo sapiens, UniProt P00533, C797S/L858R/T790M); experiment: Biochemical EGFR inhibition assay (TR-FRET), L858R/T790M/C797S mutant; settings: ATP at Km, 15 min pre-incubation, 60 min reaction; read-out: LR_TM_CS (Km ATP) IC50
T1 construct: purchased Invitrogen
Summary of the method: as §2

BaF3-LR_TM_CS cells = BaF3-LR_TM_CS cells (Homo sapiens, UniProt P00533, T790M/C797S/L858R, cells depend on it); experiment: Cell antiproliferation assay (CellTiter-Glo), BaF3-LR_TM_CS; assay type: cell-based; settings: 48 h treatment, read-out: BaF3-LR_TM_CS IC50
Sequence of BaF3-LR_TM_CS cells (P00533 whole entry T790M/C797S/L858R): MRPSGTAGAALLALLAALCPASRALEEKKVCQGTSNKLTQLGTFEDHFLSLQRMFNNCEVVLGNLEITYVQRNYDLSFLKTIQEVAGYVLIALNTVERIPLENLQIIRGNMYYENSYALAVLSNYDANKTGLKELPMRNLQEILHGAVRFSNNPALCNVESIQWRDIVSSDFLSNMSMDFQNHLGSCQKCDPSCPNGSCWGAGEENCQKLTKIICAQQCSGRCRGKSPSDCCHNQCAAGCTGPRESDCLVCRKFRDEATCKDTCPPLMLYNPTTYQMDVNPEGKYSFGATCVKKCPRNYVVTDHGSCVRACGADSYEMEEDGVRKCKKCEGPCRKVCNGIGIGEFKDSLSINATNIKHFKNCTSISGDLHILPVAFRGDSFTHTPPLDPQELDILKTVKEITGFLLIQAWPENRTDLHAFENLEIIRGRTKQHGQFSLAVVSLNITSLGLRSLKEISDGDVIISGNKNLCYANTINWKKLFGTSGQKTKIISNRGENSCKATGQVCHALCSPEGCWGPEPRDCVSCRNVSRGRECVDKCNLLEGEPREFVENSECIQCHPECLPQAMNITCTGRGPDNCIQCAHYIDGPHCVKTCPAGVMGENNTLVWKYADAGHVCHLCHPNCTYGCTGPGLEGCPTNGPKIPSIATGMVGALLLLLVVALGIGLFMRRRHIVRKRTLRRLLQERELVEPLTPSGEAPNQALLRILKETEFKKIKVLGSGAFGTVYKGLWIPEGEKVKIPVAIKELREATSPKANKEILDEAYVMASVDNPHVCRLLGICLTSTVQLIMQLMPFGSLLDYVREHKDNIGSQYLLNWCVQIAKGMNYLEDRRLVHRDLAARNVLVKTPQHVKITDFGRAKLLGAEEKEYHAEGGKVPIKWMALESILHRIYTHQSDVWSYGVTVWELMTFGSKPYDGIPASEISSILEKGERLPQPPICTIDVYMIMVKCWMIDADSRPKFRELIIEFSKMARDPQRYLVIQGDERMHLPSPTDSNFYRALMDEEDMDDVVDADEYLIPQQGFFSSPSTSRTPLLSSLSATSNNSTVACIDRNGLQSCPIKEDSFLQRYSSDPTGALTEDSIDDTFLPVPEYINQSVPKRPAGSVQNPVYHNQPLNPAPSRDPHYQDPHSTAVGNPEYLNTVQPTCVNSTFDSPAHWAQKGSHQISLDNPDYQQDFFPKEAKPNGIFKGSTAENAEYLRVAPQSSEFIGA
Summary of the method: as §1

[3] = target: T2, EGFR (aa668-1210, Invitrogen) (Homo sapiens, UniProt P00533); experiment: Biochemical EGFR inhibition assay (TR-FRET), wild-type EGFR; settings: ATP at Km, 15 min pre-incubation, 60 min reaction; read-out: WT (Km ATP) IC50
T2 construct: EGFR (aa668-1210, Invitrogen); purchased Invitrogen
Summary of the method: as §2

BaF3-Del_TM_CS cells = BaF3-Del_TM_CS cells (Homo sapiens, UniProt P00533, T790M/C797S, cells depend on it, form not given); experiment: Cell antiproliferation assay (CellTiter-Glo), BaF3-Del_TM_CS; assay type: cell-based; settings: 48 h treatment, read-out: BaF3-Del_TM_CS IC50
Sequence of BaF3-Del_TM_CS cells (P00533 with tags, fused parts or gaps DEL746-750/T790M/C797S, form open): as the sequence (P00533 with tags, fused parts or gaps DEL746-750/T790M/C797S, form open) above
Summary of the method: as §1

Sequence of BaF3-WT cells (P00533 whole entry, change not shown): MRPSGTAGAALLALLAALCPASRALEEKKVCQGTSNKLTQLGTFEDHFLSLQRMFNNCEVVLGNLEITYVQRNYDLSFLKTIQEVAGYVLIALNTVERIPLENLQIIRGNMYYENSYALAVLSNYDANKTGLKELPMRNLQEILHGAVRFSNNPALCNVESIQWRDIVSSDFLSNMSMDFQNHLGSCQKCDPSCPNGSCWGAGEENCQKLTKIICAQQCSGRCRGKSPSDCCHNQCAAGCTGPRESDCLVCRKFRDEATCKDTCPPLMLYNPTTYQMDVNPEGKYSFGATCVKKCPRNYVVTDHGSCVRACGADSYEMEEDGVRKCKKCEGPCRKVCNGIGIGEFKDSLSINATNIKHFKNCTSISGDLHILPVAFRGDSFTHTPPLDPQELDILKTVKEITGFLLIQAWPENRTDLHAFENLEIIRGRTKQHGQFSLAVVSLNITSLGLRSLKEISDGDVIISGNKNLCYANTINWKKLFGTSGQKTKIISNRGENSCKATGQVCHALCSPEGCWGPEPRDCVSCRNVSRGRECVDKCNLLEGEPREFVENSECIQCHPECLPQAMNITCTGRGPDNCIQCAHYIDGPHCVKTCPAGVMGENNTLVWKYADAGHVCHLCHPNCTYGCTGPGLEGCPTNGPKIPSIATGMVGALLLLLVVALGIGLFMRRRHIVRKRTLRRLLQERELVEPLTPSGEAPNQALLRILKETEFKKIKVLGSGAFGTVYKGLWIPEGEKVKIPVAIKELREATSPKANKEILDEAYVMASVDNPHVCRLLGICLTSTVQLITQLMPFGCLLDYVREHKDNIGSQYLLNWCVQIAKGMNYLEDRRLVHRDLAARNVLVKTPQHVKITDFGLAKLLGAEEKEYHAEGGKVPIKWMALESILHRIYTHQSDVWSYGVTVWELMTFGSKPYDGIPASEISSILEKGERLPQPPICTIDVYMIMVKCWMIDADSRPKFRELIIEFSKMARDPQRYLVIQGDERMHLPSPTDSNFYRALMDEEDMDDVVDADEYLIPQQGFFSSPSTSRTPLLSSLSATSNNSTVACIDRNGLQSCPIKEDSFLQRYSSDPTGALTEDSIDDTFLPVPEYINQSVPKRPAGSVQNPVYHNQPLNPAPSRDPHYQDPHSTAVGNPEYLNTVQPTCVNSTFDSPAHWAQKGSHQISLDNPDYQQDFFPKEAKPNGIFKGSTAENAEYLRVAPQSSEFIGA

Row | Structure (SMILES) | GI50 (BaF3-WT cells) [nM] | IC50 [1] [nM] | IC50 [2] [nM] | GI50 (BaF3-LR_TM_CS cells) [nM] | IC50 [3] [nM] | GI50 (BaF3-Del_TM_CS cells) [nM]
1 | Cc1cc(Nc2nc(Nc3cccc4c3N(S(C)(=O)=O)CC4)c3cc[nH]c3n2)c(OC(C)C)cc1N1CCC(N2CCN(C)CC2)CC1 [Example 92, N^2-(2-isopropoxy-5-methyl-4-(4-(4-methylpiperazin-1-yl)piperidin-1-yl)phenyl)-N^4-(1-(methylsulfonyl)indolin-7-yl)-7H-pyrrolo[2,3-d]pyrimidine-2,4-diamine] | 1400 | 14 | 17 | 504 | 1530 | 225
2 | CCN1CCN(C2CCN(c3ccc(Nc4nc(Nc5cccc6c5N(S(C)(=O)=O)CC6)c5cn[nH]c5n4)cc3F)CC2)CC1 [Example 76, N^6-(4-(4-(4-ethylpiperazin-1-yl)piperidin-1-yl)-3-fluorophenyl)-N^4-(1-(methylsulfonyl)indolin-7-yl)-1H-pyrazolo[3,4-d]pyrimidine-4,6-diamine] | 987 | 0.88 | 1.3 | 350 | 0.6 | 90.5
3 | COc1cc(N2CCC(N3CCN(C)CC3)CC2)ccc1Nc1ncc(Cl)c(Nc2cccc3c2N(S(=O)(=O)N(C)C)CC3)n1 [Example 13, 7-((5-chloro-2-((2-methoxy-4-(4-(4-methylpiperazin-1-yl)piperidin-1-yl)phenyl)amino)pyrimidin-4-yl)amino)-N,N-dimethylindoline-1-sulfonamide] | 897 | 6.2 | 1.3 | 294 | 13 | 158
4 | COc1cc(N2CCC(N3CCN(C)CC3)CC2)ccc1Nc1ncc(Cl)c(Nc2cccc3c2N(S(=O)(=O)C2CC2)CC3)n1 [Example 7, 5-chloro-N^4-(1-(cyclopropylsulfonyl)indolin-7-yl)-N^2-(2-methoxy-4-(4-(4-methylpiperazin-1-yl)piperidin-1-yl)phenyl)pyrimidine-2,4-diamine] | 457 | 0.57 | 0.61 | 81.6 | 1.8 | 53.9

Next, values leading:

Row | GI50 (BaF3-WT cells) [nM] | IC50 [1] [nM] | IC50 [2] [nM] | GI50 (BaF3-LR_TM_CS cells) [nM] | IC50 [3] [nM] | GI50 (BaF3-Del_TM_CS cells) [nM] | Structure (SMILES)
5 | 1410 | 3.1 | 2 | 157 | 170 | 58.9 | COc1cc(N2CCCN(C)CC2)c(C)cc1Nc1nc(Nc2cccc3c2N(S(C)(=O)=O)CC3)c2cc[nH]c2n1 [Example 101, N^2-(2-methoxy-5-methyl-4-(4-methyl-1,4-diazepan-1-yl)phenyl)-N^4-(1-(methylsulfonyl)indolin-7-yl)-7H-pyrrolo[2,3-d]pyrimidine-2,4-diamine]
6 | 1790 | 4.9 | 5.3 | 93.8 | 575 | 57.3 | COc1cc(N2C[C@@H](C)N(C)[C@@H](C)C2)c(C)cc1Nc1nc(Nc2cccc3c2N(S(C)(=O)=O)CC3)c2cc[nH]c2n1 [Example 106, N^2-(2-methoxy-5-methyl-4-((3S,5R)-3,4,5-trimethylpiperazin-1-yl)phenyl)-N^4-(1-(methylsulfonyl)indolin-7-yl)-7H-pyrrolo[2,3-d]pyrimidine-2,4-diamine]
